In patent US12264173B2 (GILEAD SCIENCES, INC., priority 2020, dated 2025):
Like-named read-outs stand apart in the source and are kept apart here.

Legend:
Type in all cases: cell-based
RSV strain A2 = experiment: microbe, parasite or virus in culture; conditions: Table 3, HEp-2 cells, RSV A2, 4 days, read-out: RSV HEp-2 EC50
Summary of the method: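 Cytopathic-effect protection assay: HEp-2 cells (50,000/mL) infected with pre-titered RSV A2 onto 3-fold serial compound dilutions, incubated 4 days at 37° C. Cell viability read by CellTiter-Glo luminescence; percent inhibition derived against 0% and 100% virus-inhibition controls.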

RSV A2 = experiment: RSV NHBE EC50 (RSV A2 antiviral assay in NHBE cells); conditions: Table 3, NHBE cells, RSV A2, 4 days, read-out: RSV NHBE EC50
Summary of the method: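 Antiviral activity against RSV A2 was determined in NHBE cells used within 6 passages, with cell viability quantified by CellTiter-Glo after a 4-day infection.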

HRV16 = HRV16 HeLa EC50 (cytopathic effect in H1-HeLa cells)
Summary of the method: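 H1-HeLa cells seeded one day before, given 3-fold serial compound dilutions in triplicate just prior to infection with pre-titrated virus. Incubated 96 h at 33 °C/5% CO2; protection from cytopathic effect read as viability by CellTiter-Glo luminescence, normalised to infected untreated (0%) and uninfected (100%) controls.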

DENV2 replicon = experiment: DENV-2 Huh-7 Rep EC50 (replicon luminescence)
Summary of the method: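 Huh-7 cells carrying a DENV2 replicon, 5,000 cells/well, were incubated with dosed compounds for 48 h at 37° C. EnduRen live-cell substrate was added 1.5 h before luminescence reading. EC50 came from dose-response against DMSO-only wells.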

[1] = human respiratory syncytial virus, HEp-2, 96 h
[2] = human respiratory syncytial virus, NHBE, 96 h
[3] = 96 h, Table 3; H1-HeLa cells, 96 h; read-out: HRV16 HeLa EC50
[4] = Dengue virus, DENV2, Huh-7, 48 h, read-out: DENV-2 REP Huh7 EC50, Table 3, Huh-7 DENV2 replicon cells, 48 hours
[5] = Table 3; H1-HeLa cells, 96 h; read-out: HRV16 HeLa EC50
[6] = Table 3, Huh-7 DENV2 replicon cells, 48 hours, read-out: DENV-2 REP Huh7 EC50
[7] = Dengue virus, DENV2, Huh-7, 48 h, read-out: DENV-2 REP Huh7 EC50

Structure (SMILES) | EC50 (RSV strain A2; [1]) [nM] | EC50 (RSV A2; [2]) [nM] | EC50 (HRV16; [3]) [nM] | EC50 (DENV2 replicon; [4]) [nM] | EC50 (RSV strain A2) [nM] | EC50 (RSV A2) [nM] | EC50 (HRV16; [5]) [nM] | EC50 (DENV2 replicon; [6]) [nM] | EC50 (DENV2 replicon; read-out: DENV-2 REP Huh7 EC50, Table 3, Huh-7 DENV2 replicon cells, 48 hours) [nM] | EC50 (DENV2 replicon; [7]) [nM]
CCCCC(=O)O[C@H]1[C@H](c2ccc3c(N)ncnn23)O[C@](C#N)(COP(=O)(N[C@@H](C)C(=O)OCC)N[C@@H](C)C(=O)OCC)[C@H]1OC(=O)CCCC [Example 194, (2R,3S,4S,5S)-5-(4-Aminopyrrolo[2,1-f][1,2,4]triazin-7-yl)-2-(((bis(((S)-1-ethoxy-1-oxopropan-2-yl)amino)phosphoryl)oxy)methyl)-2-cyanotetrahydrofuran-3,4-diyl dipentanoate] | 391 | 529 | 2090 | 30900 | – | – | – | – | – | –
CCCOC(=O)[C@H](C)NP(=O)(OC[C@@]1(C#N)O[C@@H](c2ccc3c(N)ncnn23)[C@H](OC(=O)CC)[C@@H]1OC(=O)CC)Oc1ccccc1 (single isomer, unassigned) [Example 188] | – | – | – | – | 31 | 28 | 102 | 6920 | – | –
CCCCC(=O)O[C@H]1[C@H](c2ccc3c(N)ncnn23)O[C@](C#N)(COP(=O)(N[C@@H](C)C(=O)OCC)N[C@@H](C)C(=O)OCC)[C@H]1OC(=O)CCCC [Example 211, (2R,3S,4S,5S)-5-(4-Aminopyrrolo[2,1-f][1,2,4]triazin-7-yl)-2-(((bis(((S)-1-ethoxy-1-oxopropan-2-yl)amino)phosphoryl)oxy)methyl)-2-cyanotetrahydrofuran-3,4-diyl dipentanoate] | – | – | – | – | 653 | 946 | 1970 | – | 28900 | –
COC(=O)[C@H](C)NP(=O)(OC[C@@]1(C#N)O[C@@H](c2ccc3c(NC(C)=O)ncnn23)[C@H](OC(C)=O)[C@@H]1OC(C)=O)Oc1ccccc1 (stereo partly drawn) [Example 132, (2R,3S,4S,5S)-5-(4-acetamidopyrrolo[2,1-f][1,2,4]triazin-7-yl)-2-cyano-2-((((((S)-1-methoxy-1-oxopropan-2-yl)amino)(phenoxy)phosphoryl)oxy)methyl) tetrahydrofuran-3,4-diyl diacetate] | 434 | 145 | 3480 | – | – | – | – | – | – | 29400
CC(=O)O[C@H]1[C@H](c2ccc3c(N)ncnn23)O[C@](C#N)(COP(=O)(N[C@@H](C)C(=O)OC2CCC2)Oc2ccccc2)[C@H]1OC(C)=O (stereo partly drawn) [Example 198, (2R,3S,4S,5S)-5-(4-aminopyrrolo[2,1-f][1,2,4]triazin-7-yl)-2-cyano-2-((((((S)-1-cyclobutoxy-1-oxopropan-2-yl)amino)(phenoxy)phosphoryl)oxy)methyl) tetrahydrofuran-3,4-diyl diacetate] | – | – | – | – | 48 | 37 | 319 | 6620 | – | –
CC(C)OC(=O)[C@H](C)N[P@](=O)(OC[C@@]1(C#N)O[C@@H](c2ccc3c(NC(=O)C(C)C)ncnn23)[C@H](OC(=O)C(C)C)[C@@H]1OC(=O)C(C)C)Oc1ccccc1 [Example 106] | 173 | 15 | 805 | – | – | – | – | – | – | 14600
CC(C)C(=O)O[C@H]1[C@H](c2ccc3c(N)ncnn23)O[C@](C#N)(COP(=O)(N[C@@H](C)C(=O)OC[C@H]2CC[C@H](C(F)(F)F)CC2)Oc2ccccc2)[C@H]1OC(=O)C(C)C (stereo partly drawn) [Example 87] | 119 | 23 | 220 | – | – | – | – | – | – | 12300
CO[C@@H](C)C(=O)O[C@H]1[C@H](c2ccc3c(N)ncnn23)O[C@](C#N)(CO[P@@](=O)(N[C@@H](C)C(=O)OC(C)C)Oc2ccccc2)[C@H]1OC(=O)[C@H](C)OC [Example 158, (2R,3S,4S,5S)-5-(4-aminopyrrolo[2,1-f][1,2,4]triazin-7-yl)-2-cyano-2-((((S)-(((S)-1-isopropoxy-1-oxopropan-2-yl)amino)(phenoxy)phosphoryl)oxy)methyl) tetrahydrofuran-3,4-diyl (2S,2'S)-bis(2-methoxypropanoate)] | 139 | 52 | 731 | – | – | – | – | – | – | 15700
CCOC(=O)[C@H](C)NP(=O)(N[C@@H](C)C(=O)OCC)OC[C@@]1(C#N)O[C@@H](c2ccc3c(N)ncnn23)[C@H](OC(=O)CC)[C@@H]1OC(=O)CC [Example 124, ((2R,3S,4R,5S)-5-(4-aminopyrrolo[2,1-f][1,2,4]triazin-7-yl)-2-cyano-3,4-dipropionatetetrahydrofuran-2-yl)methyl bis-ethyl L-alaninate phosphate] | 2100 | 150 | 8390 | > 50000 | – | – | – | – | – | –
COC(=O)[C@H](C)NP(=O)(N[C@@H](C)C(=O)OC)OC[C@@]1(C#N)O[C@@H](c2ccc3c(N)ncnn23)[C@H](OC(C)=O)[C@@H]1OC(C)=O [Example 127] | 8060 | 3360 | > 50000 | > 50000 | – | – | – | – | – | –
CCCOC(=O)[C@H](C)NP(=O)(OC[C@@]1(C#N)O[C@@H](c2ccc3c(N)ncnn23)[C@H](OC(=O)CC)[C@@H]1OC(=O)CC)Oc1ccccc1 (mixture of isomers) [Example 187] | 24 | 17 | 88 | – | – | – | – | – | – | 5930
CCC(CC)COC(=O)[C@H](C)NP(=O)(N[C@@H](C)C(=O)OCC(CC)CC)OC[C@@]1(C#N)O[C@@H](c2ccc3c(N)ncnn23)[C@H](OC(C)=O)[C@@H]1OC(C)=O [Example 114, (2R,3S,4S,5S)-5-(4-Aminopyrrolo[2,1-f][1,2,4]triazin-7-yl)-2-cyano-2-((((((S)-1-(2-ethylbutoxy)-1-oxopropan-2-yl)amino)(((2S)-1-(2-ethylbutoxy)-1-oxopropan-2-yl)amino)phosphoryl)oxy)methyl)tetrahydrofuran-3,4-diyl diacetate] | 1660 | 201 | 3850 | 26300 | – | – | – | – | – | –
CC(C)C(=O)O[C@H]1[C@H](c2ccc3c(N)ncnn23)O[C@](C#N)(COP(=O)(N[C@@H](C)C(=O)OCC2CCOCC2)Oc2ccccc2)[C@H]1OC(=O)C(C)C (single isomer, unassigned) [Example 182] | – | – | – | – | 88 | 17 | 177 | 3500 | – | –
CCC(=O)O[C@H]1[C@H](c2ccc3c(N)ncnn23)O[C@](C#N)(CO[P@](=O)(N[C@@H](C)C(=O)OC2CCC2)Oc2ccccc2)[C@H]1OC(=O)CC [Example 196, (2R,3S,4S,5S)-5-(4-aminopyrrolo[2,1-f][1,2,4]triazin-7-yl)-2-cyano-2-((((R)-(((S)-1-cyclobutoxy-1-oxopropan-2-yl)amino)(phenoxy)phosphoryl)oxy)methyl) tetrahydrofuran-3,4-diyl dipropionate] | – | – | – | – | 42 | 27 | 96 | 1960 | – | –
CC(=O)OC1[C@H](c2ccc3c(N)ncnn23)O[C@](C#N)(COP(=O)(N[C@@H](C)C(=O)OCC2CCOCC2)Oc2ccccc2)[C@H]1OC(C)=O (stereo in doubt) [Example 110, (2R,3S,4R,5S)-5-(4-aminopyrrolo[2,1-f][1,2,4]triazin-7-yl)-2-cyano-2-((((((S)-1-oxo-1-((tetrahydro-2H-pyran-4-yl)methoxy)propan-2-yl)amino)(phenoxy)phosphoryl)oxy)methyl)tetrahydrofuran-3,4-diyl diacetate] | 327 | 40 | 2510 | – | – | – | – | – | – | 56300
CC(C)C(=O)O[C@H]1[C@H](c2ccc3c(N)ncnn23)O[C@](C#N)(COP(=O)(NCCOC(=O)C(C)(C)C)Oc2ccccc2)[C@H]1OC(=O)C(C)C (stereo partly drawn) [Example 97, (2R,3S,4S,5S)-5-(4-aminopyrrolo[2,1-f][1,2,4]triazin-7-yl)-2-cyano-2-(((phenoxy((2-(pivaloyloxy)ethyl)amino)phosphoryl)oxy)methyl)tetrahydrofuran-3,4-diyl bis(2-methylpropanoate)] | 366 | > 5000 | 1120 | – | – | – | – | – | – | 9050
COCCOCC(=O)O[C@H]1[C@H](c2ccc3c(N)ncnn23)O[C@](C#N)(CO[P@@](=O)(N[C@@H](C)C(=O)OC(C)C)Oc2ccccc2)[C@H]1OC(=O)COCCOC [Example 161, (2R,3S,4S,5S)-5-(4-aminopyrrolo[2,1-f][1,2,4]triazin-7-yl)-2-cyano-2-((((S)-(((S)-1-isopropoxy-1-oxopropan-2-yl)amino)(phenoxy)phosphoryl)oxy)methyl) tetrahydrofuran-3,4-diyl bis(2-(2-methoxyethoxy)acetate)] | 151 | 1160 | 1230 | – | – | – | – | – | – | 22500
CCCOC(=O)[C@H](C)NP(=O)(OC[C@@]1(C#N)O[C@@H](c2ccc3c(N)ncnn23)[C@H](OC(=O)C(C)C)[C@@H]1OC(=O)C(C)C)Oc1ccccc1 (single isomer, unassigned) [Example 192] | – | – | – | – | 29 | 45 | 101 | 8670 | – | –
